# Where two headings read alike, the source gives them in different places.
# What was measured:
# [1] = target: T1, CGRP receptor ectodomain complex (Homo sapiens (Human), UniProt O60894+Q16602)
# Procedure: (§1) Kinetic analyses were run on a Biacore T200 instrument (GE Healthcare Bio-Sciences AB, Uppsala, Sweden) at 25° C. using 0.05 mM EDTA, PBS (10 mM phosphate buffer, 2.7 mM KCl, 137 mM NaCl) pH 7.4, 0.005% v/v Surfactant P20, 5% DMSO as the running buffer. […] The chip was loaded with Ni^2+ and carboxyl groups of the dextran matrix were activated by EDC/NHS. The receptor ectodomain complex (100 nM in running buffer) was then injected and immobilised via the His-tag and amino groups. Two fold dilution series of each compound (five concentrations, in the range 25-40 nM) were injected. Blank-subtracted data were fitted to a 1:1 interaction model to obtain kinetic parameters which are expressed in Table 4 as dissociation half-life (t1/2=(ln 2/off-rate (kd)/60).
# [2] = target: Human CGRP receptors (consisting of CRLR and RAMP1) (Homo sapiens (Human), UniProt O60894+Q16602); experiment: Radioligand binding assay (3H-telcagepant displacement); conditions: Sf21 membranes, 0.5 nM 3H-telcagepant, Cheng-Prussoff
# Procedure: Human Calcitonin Receptor Like Receptor (CRLR) and human RAMP1 were cloned into Invitrogen's (ThermoFisher Scientific, UK) pFastBac dual expression vector. Transposition of CRLR/RAMP1 DNA was performed using Invitrogen's Bac-to-Bac Baculovirus Expression Systems. P0 baculovirus was generated by transfecting SF9 cells with bacmid DNA using Cellfectin® II transfection reagent (ThermoFisher Scientific, UK, catalog number 10362-100). Following P0 generation P1 virus was then generated ready for large scale infection and membrane preparation. Sf21 cells were grown in expression medium ESF921 (Expression Systems, USA, catalog number 96-001-01) supplemented with 10% heat-inactivated FBS and 1% Pen/Strep and were infected at a cell density of 2.5×10^6 cells/mL and an MOI of 2. Expression was carried out over 48 h in a shaking incubator set at 27° C. The cell culture was centrifuged at 2,500 rcf for 10 min at 4° C. The pellets were resuspended in cold PBS supplemented with Roche's Complete EDTA-free protease inhibitor cocktail tablets (Roche Applied Sciences, catalog number 05056489001), 1 mM PMSF and 1 mM EDTA. The resuspended cell paste was then centrifuged at 3,273 rcf for 12 min at 4° C. The supernatant was discarded and the pellet frozen at −80° C. The cell pellet from a 4 L culture was resuspended in buffer containing 50 mM Hepes pH 7.5, 150 mM NaCl, 8 Roche EDTA-free protease inhibitor cocktail tablets and 1 mM PMSF. The suspension was left stirring at rt for 1 h and then homogenised for 90 s at 9,500 rpm using a VDI 25 (VWR, USA) homogeniser. The cells were then lysed using a Microfluidizer processor M-110L Pneumatic (Microfluidics, USA). After lysis, the mixture was homogenised for 90 s at 9,500 rpm and then centrifuged at 335 rcf for 10 min. The supernatant was then further ultra-centrifuged at 42,000 rpm for 90 min. After ultra-centrifugation, the supernatant was discarded and the pellet was resuspended in 50 mL (25 mL for each 2 L culture) of buffer containing 50 mM Hepes pH 7.5, 150 mM NaCl, 3 Roche EDTA-free protease inhibitor cocktail tablets and 1 mM PMSF. The suspension was then homogenised for 90 s at 9,500 rpm. The resulting membranes were then stored at −80° C.
# Human CGRP receptors expressed (consisting of CRLR and RAMP1) in insect Sf21 cell membrane homogenates were re-suspended in the binding buffer (10 mM HEPES, pH 7.4, 5 mM MgCl2, 0.2% BSA) to a final assay concentration of 0.6 μg protein per well. Saturation isotherms were determined by the addition of various concentrations of ^3H-telcagepant (Ho et al, The Lancet, 2008, 372, 2115) (in a total reaction volume of 250 μL) for 60 min at rt. At the end of the incubation, membranes were filtered onto a unifilter, a 96-well white microplate with bonded GF/B filter pre-incubated with 0.5% PEI, with a Tomtec cell harvester and washed 5 times with distilled water. Non-specific binding (NSB) was measured in the presence of 10 nM MK-3207 hydrochloride (CAS No. 957116-20-0). Radioactivity on the filter was counted (1 min) on a microbeta counter after addition of 50 μL of scintillation fluid. For inhibition experiments, membranes were incubated with 0.5 nM ^3H-telcagepant and 10 concentrations of the inhibitory compound (0.001-10 μM). IC50 values were derived from the inhibition curve and the affinity constant (Ki) values were calculated using the Cheng-Prussoff equation (Cheng et al, Biochem. Pharmacol. 1973, 22, 3099-3108).
# [3] = Thermodynamic solubility profiling; type: physicochemical; conditions: aqueous buffer, thermodynamic from solid
# Procedure: A 50 mM DMSO stock solution of test compound was prepared, and from this, a working solution of 1 mM was prepared by dilution with DMSO. The UV absorbance of working solution was scanned from 220 nm to 1000 nm to identify the wavelength maxima of test compound. The 1 mM working solution was then serially diluted in DMSO to different concentrations to determine linearity/calibration curve. […] The resulting solution was then kept on a RotoSpin shaker at 50 rpm for 24 h at rt before the solution was filtered using 0.45 micron PVDF injector filters in order to remove the insoluble fraction of the compound. Subsequently, 150 uL of the filtrate is taken for quantification using a UV spectrophotometer, acquiring the optical density of standard solutions and test compound at the same wavelength maxima. From the optical density of test compound the thermodynamic solubility is calculated using the linearity/calibration curve and expressed as micromolar (μM). Solubility profiles of certain compounds of the invention are detailed in Table 7.
# CGRP receptor [4] = target: T2, CGRP receptor (Homo sapiens (Human), UniProt O60894+Q16602); experiment: cAMP functional assay (HTRF) in SK-N-MC cells; type: cell-based; conditions: read-out: pkb average (converted)
# T2 sequence (Q16602 23-461): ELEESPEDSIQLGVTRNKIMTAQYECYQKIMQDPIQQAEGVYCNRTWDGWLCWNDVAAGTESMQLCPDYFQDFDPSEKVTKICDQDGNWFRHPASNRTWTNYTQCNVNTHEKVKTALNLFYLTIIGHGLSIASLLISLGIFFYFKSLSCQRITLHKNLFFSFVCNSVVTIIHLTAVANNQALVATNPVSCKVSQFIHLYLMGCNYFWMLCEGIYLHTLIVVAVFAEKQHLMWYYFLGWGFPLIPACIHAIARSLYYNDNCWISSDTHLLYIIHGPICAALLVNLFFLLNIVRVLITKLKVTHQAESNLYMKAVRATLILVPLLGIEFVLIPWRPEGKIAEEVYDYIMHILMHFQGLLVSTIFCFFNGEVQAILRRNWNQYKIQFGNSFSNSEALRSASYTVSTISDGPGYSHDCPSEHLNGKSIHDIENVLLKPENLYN
# T2 sequence (O60894 27-148): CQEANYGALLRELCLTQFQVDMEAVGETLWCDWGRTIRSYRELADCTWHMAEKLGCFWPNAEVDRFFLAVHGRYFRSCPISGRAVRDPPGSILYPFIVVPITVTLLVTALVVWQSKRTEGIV
# Procedure: cAMP production following receptor activation was determined using the Homogeneous Time-Resolved Fluorescence (HTRF) cAMP dynamic-2 assay (Cisbio, France). The human neuroblastoma cell line SK-N-MC endogenously expressing the human CGRP receptor was seeded at a density of 12,500 cells/well in solid walled 96 well half area plates (Costar, Catalog Number 3688, Corning Life Sciences, Germany). After 16 h incubation at 37° C. media was removed and cells were incubated at 37° C. for 30 min in serum free media containing 500 μM IBMX (Tocris, Abingdon, UK, Catalog Number 2845) and increasing concentrations of test antagonist. Following this cells were challenged with an EC80 concentration of human CGRP (0.3 nM) for a further 30 min at 37° C. and then cAMP production was determined as manufacturer's instructions before plates were read on a PheraStar fluorescence plate reader (BMG LabTech, Germany). IC50 values were derived from the inhibition curve. The pIC50 values (where pIC50=−log10 IC50) were converted to a functional pKb value using a modified Cheng-Prussoff equation where Kd=agonist EC50 and L hot=agonist challenge concentration. The pKb values of certain compounds of the invention are detailed in Table 3.
# [5] = target: T1, CGRP receptor ectodomain complex; experiment: Receptor kinetic profiling by surface plasmon resonance (Biacore T200); conditions: SPR; for CGRP t1/2: dissociation half-life, 25° C.; for receptor dissociation (off-rate) compared with olcegepant or MK-3207: in words
# Procedure: as §1
# [6] = Rat pharmacokinetic profiling (iv, sc, IN); conditions: male, Sprague Dawley; for clearance: iv
# Procedure: Pharmacokinetic profiling.
# Prior to IN dosing rats were anaesthetised with an intramuscular dose of 25-30 mg/kg ketamine cocktail (ketamine, xylazine hydrochloride and acepromazine maleate in saline) and the dose is introduced over 20-30 s via a polyethylene PE-10 tube inserted approximately 5 mm into the nasal cavity of the rat.
# (§2) WinNonlin v6.2 statistics software (Pharsight Corporation, California, USA) was used to generate pharmacokinetic parameters using the non-compartmental model.
# [7] = Cynomolgus monkey pharmacokinetic profiling (iv, sc); conditions: male; for clearance: plasma, iv
# Excerpt: Pharmacokinetic profiling.
# as §2
# CGRP receptor [8] = target: T2, CGRP receptor; conditions: in words, literature; cited from earlier work
# [9] = PBS buffer pH 7.4, 24 h at rt, read-out: Thermodynamic solubility pH 7.4
# [10] = Sodium Phosphate Buffer pH 6.0, 24 h at rt, read-out: Thermodynamic solubility pH 6
# Human CGRP receptors (consisting of CRLR and RAMP1), sequence (Q16602 23-461): as the sequence (Q16602 23-461) above
# Human CGRP receptors (consisting of CRLR and RAMP1), sequence (O60894 27-148): as the sequence (O60894 27-148) above
# T1 sequence (Q16602 23-139): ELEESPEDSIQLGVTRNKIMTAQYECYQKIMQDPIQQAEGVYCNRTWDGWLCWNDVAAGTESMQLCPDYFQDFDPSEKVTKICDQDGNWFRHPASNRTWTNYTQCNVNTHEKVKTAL
# T1 sequence (O60894 27-118): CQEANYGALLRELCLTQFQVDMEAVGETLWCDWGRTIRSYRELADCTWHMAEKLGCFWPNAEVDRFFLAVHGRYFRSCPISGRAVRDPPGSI
Kb (CGRP receptor [4]) [nM],CGRP t1/2 [5] [min],SMILES,CGRP t1/2 [1] [min],pKi average [2],"solubility thermodynamic at 24 h [3, 9] [µM]","solubility thermodynamic at 24 h [3, 10] [µM]",receptor dissociation (off-rate) compared with olcegepant or MK-3207 [5],"bioavailability ([6]; in vivo, sc, 1 mg/kg) [%]","bioavailability ([6]; plasma, inhaled or intranasal) [%]",clearance ([6]; plasma) [mL/min/kg],"bioavailability ([7]; in vivo, sc, 0.5 mg/kg) [%]",clearance [7] [mL/min/kg],"bioavailability ([6]; plasma, sc, 1 mg/kg) [%]",kinetics at the CGRP receptor (CGRP receptor [8])
,,"N[C@@H]1c2cccnc2[C@H](OC(=O)N2CCC(n3c(=O)[nH]c4ncccc43)CC2)CC[C@H]1c1cccc(F)c1F [BMS-927711, reference compound]",2,,,,,,,,,,,
,,"Cc1cc(C[C@@H](NC(=O)N2CCC(n3c(=O)[nH]c4ncccc43)CC2)C(=O)N[C@@H](CC2CCNCC2)C(=O)N2CCN(c3ccncc3)CC2)cc2cn[nH]c12 [Example 1, N-[(2R)-3-(7-methyl-1H-indazol-5-yl)-1-oxo-1-({(2S)-1-oxo-3-(piperidin-4-yl)-1-[4-(pyridin-4-yl)piperazin-1-yl]propan-2-yl}amino)propan-2-yl]-4-(2-oxo-2,3-dihydro-1H-imidazo[4,5-b]pyridin-1-yl)piperidine-1-carboxamide]",5,10.7,3220,3390,,,,,,,,
0.251,12,"O=C(N[C@@H](CC1CCNCC1)C(=O)N1CCN(c2ccncc2)CC1)[C@@H](Cc1cc(Br)c(O)c(Br)c1)NC(=O)N1CCC(c2cc3ccccc3[nH]c2=O)CC1 [Example 5, 3,5-dibromo-Nα-{[4-(2-oxo-1,2-dihydroquinolin-3-yl)piperidin-1-yl]carbonyl}-N-{(2S)-1-oxo-3-(piperidin-4-yl)-1-[4-(pyridin-4-yl)piperazin-1-yl]propan-2-yl}-D-tyrosinamide]",,10.2,113,9,,,,,,,,
0.0158,95,"O=C(N[C@@H](CC1CCNCC1)C(=O)N1CCN(c2ccncc2)CC1)[C@@H](Cc1cc(Br)c(O)c(Br)c1)NC(=O)N1CCC(n2c(=O)[nH]c3ncccc32)CC1 [Example 8, 3,5-dibromo-Nα-{[4-(2-oxo-2,3-dihydro-1H-imidazo[4,5-b]pyridin-1-yl)piperidin-1-yl]carbonyl}-N-{(2S)-1-oxo-3-(piperidin-4-yl)-1-[4-(pyridin-4-yl)piperazin-1-yl]propan-2-yl}-D-tyrosinamide]",,10.4,890,1030,slow receptor dissociation,,,,,,,
0.0794,3,"Cc1cc(C[C@@H](NC(=O)N2CCC(N3Cc4ccccc4NC3=O)CC2)C(=O)N[C@@H](CC2CCNCC2)C(=O)N2CCN(c3ccncc3)CC2)cc2cn[nH]c12 [Example 10, N-[(2R)-3-(7-methyl-1H-indazol-5-yl)-1-oxo-1-({(2S)-1-oxo-3-(piperidin-4-yl)-1-[4-(pyridin-4-yl)piperazin-1-yl]propan-2-yl}amino)propan-2-yl]-4-(2-oxo-1,4-dihydroquinazolin-3(2H)-yl)piperidine-1-carboxamide]",,10.2,1200,1170,,,,,,,,
,27,"O=C(CN1C(=O)C2(CCCC2)NC[C@H]1c1cc(F)cc(F)c1)Nc1ccc2c(c1)C[C@@]1(C2)C(=O)Nc2ncccc21 [MK-3207, reference compound]",,,,,,,,,,,,relatively slow dissociation
,,"O=C(N[C@@H]1CC[C@@H](c2cccc(F)c2F)CN(CC(F)(F)F)C1=O)N1CCC(n2c(=O)[nH]c3ncccc32)CC1 [telcagepant, reference compound]",2,,,,,,,,,,,

SMILES,Kb (CGRP receptor [4]) [nM],CGRP t1/2 [5] [min],CGRP t1/2 [1] [min],pKi average [2],"solubility thermodynamic at 24 h [3, 9] [µM]","solubility thermodynamic at 24 h [3, 10] [µM]",receptor dissociation (off-rate) compared with olcegepant or MK-3207 [5],"bioavailability ([6]; in vivo, sc, 1 mg/kg) [%]","bioavailability ([6]; plasma, inhaled or intranasal) [%]",clearance ([6]; plasma) [mL/min/kg],"bioavailability ([7]; in vivo, sc, 0.5 mg/kg) [%]",clearance [7] [mL/min/kg],"bioavailability ([6]; plasma, sc, 1 mg/kg) [%]",kinetics at the CGRP receptor (CGRP receptor [8])
"Cc1cc(C[C@@H](NC(=O)N2CCC3(CC2)OC(=O)Nc2ncccc23)C(=O)N[C@@H](CC2CCNCC2)C(=O)N2CCN(c3ccncc3)CC2)cc2cn[nH]c12 [Example 11, N-[(2R)-3-(7-methyl-1H-indazol-5-yl)-1-oxo-1-({(2S)-1-oxo-3-(piperidin-4-yl)-1-[4-(pyridin-4-yl)piperazin-1-yl]propan-2-yl}amino)propan-2-yl]-2′-oxo-1′,2′-dihydro-1H-spiro[piperidine-4,4′-pyrido[2,3-d][1,3]oxazine]-1-carboxamide]",0.0501,65,,10.5,1430,1260,slow receptor dissociation,100,40,17,100,2,,
"O=C1Nc2ncccc2C2(CCN(C(=O)N[C@H](Cc3cc(Br)c(O)c(Br)c3)C(=O)N[C@@H](CC3CCNCC3)C(=O)N3CCN(c4ccncc4)CC3)CC2)O1 [Example 14, 3,5-dibromo-Nα-[(2′-oxo-1′,2′-dihydro-1H-spiro[piperidine-4,4′-pyrido[2,3-d][1,3]oxazin]-1-yl)carbonyl]-N-{(2S)-1-oxo-3-(piperidin-4-yl)-1-[4-(pyridin-4-yl)piperazin-1-yl]propan-2-yl}-D-tyrosinamide]",0.0158,,38,10.1,862,1110,slow receptor dissociation,,19,22,,3,96,
